US20230399312A1, “SUBSTITUTED PYRIMIDINES AND METHODS OF USE” (THERAVANCE BIOPHARMA R&D IP, LLC, priority 2020, published 2023)

Columns and labels:
[1] = biological target: T1, recombinant human ALK5 (TGF-βR1) protein (Homo sapiens, UniProt P36897); assay: Biochemical ALK5 (TGF-βR1) assay to measure pKi (LANCE Ultra ULight kinase assay); settings: apparent pKi, converted from pIC50 by Cheng-Prusoff
T1 construct: purchased Life Technologies PR9075A
T1 sequence (P36897 34-503): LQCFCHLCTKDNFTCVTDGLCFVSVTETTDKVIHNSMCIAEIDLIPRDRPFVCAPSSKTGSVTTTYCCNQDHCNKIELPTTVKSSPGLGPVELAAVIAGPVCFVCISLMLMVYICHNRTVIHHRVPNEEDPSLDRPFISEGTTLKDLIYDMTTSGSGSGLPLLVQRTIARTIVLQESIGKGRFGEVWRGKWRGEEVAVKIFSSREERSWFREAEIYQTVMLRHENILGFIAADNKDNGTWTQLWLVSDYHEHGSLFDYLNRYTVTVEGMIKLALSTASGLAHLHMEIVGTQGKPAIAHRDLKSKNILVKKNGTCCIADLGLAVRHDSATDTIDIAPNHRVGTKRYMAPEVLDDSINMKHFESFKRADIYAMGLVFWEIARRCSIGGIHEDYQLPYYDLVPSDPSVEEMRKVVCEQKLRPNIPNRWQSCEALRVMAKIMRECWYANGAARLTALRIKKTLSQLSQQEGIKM
Summary of the method: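 Enzyme was preincubated with compound for 60 min at room temperature, then ATP (added from a 125 μM 5× stock with 2 mM DTT) started a 60 min reaction at 37 °C. EDTA plus Eu-anti-phospho-Topo2α (Thr1342) antibody stopped it; TR-FRET pIC50 values were converted to pKi by Cheng-Prusoff.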

[2] = test system: TGF-β-stimulated SMAD3 phosphorylation in BEAS-2B cells; assay: Cellular ALK5 potency assay, inhibition of TGF-β stimulated pSMAD3 formation in BEAS-2B cells; format: cell-based; settings: Homo sapiens, pSMAD3, TGF-β 10 ng/mL, read-out: BEAS2B pIC50 (converted)
Summary of the method: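 Read-out is AlphaLISA detection of phospho-SMAD3 in lysates of BEAS-2B human lung epithelial cells. Cells are exposed to compound for 1 hour, then to 10 ng/mL TGF-β (final) for 30 minutes. Values are pIC50 from concentration–response curves.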

| Compound | Ki [1] [nM] | IC50 [2] [nM] |
| --- | --- | --- |
| Cc1cccc(-c2nccc(Nc3ccnc(Nc4ccc(N5CCCNCC5)cc4)n3)n2)n1 [Compound 196, N2-[4-(1,4-diazepan-1-yl)phenyl]-N4-[2-(6-methyl-2-pyridyl)pyrimidin-4-yl]pyrimidine-2,4-diamine] | 0.0398 to 0.316 | 25.1 to 158 |
| Cc1cccc(-c2nccc(Nc3ccnc(Nc4ccc(CN5C6CCC5CNC6)cc4)n3)n2)n1 [Compound 197, N2-[4-(3,8-diazabicyclo[3.2.1]octan-8-ylmethyl)phenyl]-N4-[2-(6-methyl-2-pyridyl)pyrimidin-4-yl]pyrimidine-2,4-diamine] | 0.0398 to 0.316 | 25.1 to 158 |
| Cc1cccc(-c2nccc(Nc3ccnc(Nc4ccc(NC5CNC5)cc4)n3)n2)n1 [Compound 199, N2-[4-(azetidin-3-ylamino)phenyl]-N4-[2-(6-methyl-2-pyridyl)pyrimidin-4-yl]pyrimidine-2,4-diamine] | 0.0398 to 0.316 | 25.1 to 158 |
| Cc1cccc(-c2nccc(Nc3ccnc(Nc4ccc(CN5CCN[C@@H](C(=O)O)C5)cc4)n3)n2)n1 [Compound 200, (2R)-4-[[4-[[4-[[2-(6-methyl-2-pyridyl)pyrimidin-4-yl]amino]pyrimidin-2-yl]amino]phenyl]methyl] piperazine-2-carboxylic acid] | 0.0398 to 0.316 | 200 to 1260 |
| Cc1cccc(-c2nccc(Nc3ccnc(Nc4ccc(N(C)CC5CNC5)cc4)n3)n2)n1 [Compound 202, N2-(4-((azetidin-3-ylmethyl)(methyl)amino)phenyl)-N4-(2-(6-methylpyridin-2-yl)pyrimidin-4-yl)pyrimidine-2,4-diamine] | 0.0398 to 0.316 | 25.1 to 158 |
| Cc1cccc(-c2nccc(Nc3ccnc(Nc4cccc(NC(=O)C5(O)CCNC5)c4)n3)n2)n1 (stereo not drawn) [Compound 203, 3-hydroxy-N-[3-[[4-[[2-(6-methyl-2-pyridyl)pyrimidin-4-yl]amino]pyrimidin-2-yl]amino]phenyl]pyrrolidine-3-carboxamide] | 0.0398 to 0.316 | ≤ 20 |
| Cc1cccc(-c2nccc(Nc3ccnc(Nc4ccc(N5CCNCC5)c(CC(=O)OCC(C)C)c4)n3)n2)n1 [Compound 205, isobutyl 2-[5-[[4-[[2-(6-methyl-2-pyridyl)pyrimidin-4-yl]amino]pyrimidin-2-yl]amino]-2-piperazin-1-yl-phenyl]acetate] | 0.0398 to 0.316 | 25.1 to 158 |
| Cc1cccc(-c2nccc(Nc3ccnc(Nc4ccc(S(=O)(=O)NCCN)cc4)n3)n2)n1 [Compound 208, N-(2-aminoethyl)-4-[[4-[[2-(6-methyl-2-pyridyl)pyrimidin-4-yl]amino]pyrimidin-2-yl]amino]benzenesulfonamide] | ≤ 0.0316 | ≤ 20 |
| Cc1cccc(-c2nccc(Nc3ccnc(Nc4ccc(NC(=O)C5(CO)CNC5)cc4)n3)n2)n1 [Compound 209, 3-(hydroxymethyl)-N-(4-((4-((2-(6-methylpyridin-2-yl)pyrimidin-4-yl)amino)pyrimidin-2-yl)amino)phenyl)azetidine-3-carboxamide] | 0.0398 to 0.316 | ≤ 20 |
| Cc1cccc(-c2nccc(Nc3ccnc(Nc4ccc(S(=O)(=O)N5CCN(C(C)C)CC5)cc4)n3)n2)n1 [Compound 213, N2-[4-(4-isopropylpiperazin-1-yl)sulfonylphenyl]-N4-[2-(6-methyl-2-pyridyl)pyrimidin-4-yl]pyrimidine-2,4-diamine] | 0.0398 to 0.316 | 25.1 to 158 |
| Cc1cccc(-c2nccc(Nc3ccnc(Nc4ccc(CN5CCCC(C(=O)NC6CNC6)C5)cc4)n3)n2)n1 (stereo not drawn) [Compound 214, N-(azetidin-3-yl)-1-[[4-[[4-[[2-(6-methyl-2-pyridyl)pyrimidin-4-yl]amino]pyrimidin-2-yl]amino]phenyl]methyl] piperidine-3-carboxamide] | 0.0398 to 0.316 | 25.1 to 158 |
| Cc1cccc(-c2nccc(Nc3ccnc(Nc4ccc(N5CCCC(C(=O)OC6CCNCC6)C5)cc4)n3)n2)n1 (stereo not drawn) [Compound 215, 4-piperidyl 1-[4-[[4-[[2-(6-methyl-2-pyridyl)pyrimidin-4-yl]amino]pyrimidin-2-yl]amino]phenyl]piperidine-3-carboxylate] | 0.0398 to 0.316 | 200 to 1260 |
| Cc1cccc(-c2nccc(Nc3ccnc(Nc4ccc(N5CCC(C(=O)OC6CCNCC6)CC5)cc4)n3)n2)n1 [Compound 218, 4-piperidyl 1-[4-[[4-[[2-(6-methyl-2-pyridyl)pyrimidin-4-yl]amino]pyrimidin-2-yl]amino]phenyl]piperidine-4-carboxylate] | 0.0398 to 0.316 | 25.1 to 158 |

Continued, in another order:

| Ki [1] [nM] | Compound | IC50 [2] [nM] |
| --- | --- | --- |
| 0.0398 to 0.316 | Cc1cccc(-c2nccc(Nc3ccnc(Nc4ccc5c(c4)CN(C(C)C)CC5)n3)n2)n1 [Compound 198, N2-(2-isopropyl-3,4-dihydro-1H-isoquinolin-7-yl)-N4-[2-(6-methyl-2-pyridyl)pyrimidin-4-yl]pyrimidine-2,4-diamine] | 25.1 to 158 |
| 0.398 to 3.16 | COC(=O)C1CN(Cc2ccc(Nc3nccc(Nc4ccnc(-c5cccc(C)n5)n4)n3)cc2)CCN1C (stereo not drawn) [Compound 201, methyl 1-methyl-4-[[4-[[4-[[2-(6-methyl-2-pyridyl)pyrimidin-4-yl]amino]pyrimidin-2-yl]amino]phenyl]methyl] piperazine-2-carboxylate] | 25.1 to 158 |
| 0.0398 to 0.316 | COC(=O)C1CNCCN1c1ccc(Nc2nccc(Nc3ccnc(-c4cccc(C)n4)n3)n2)cc1 (stereo not drawn) [Compound 204, methyl 1-[4-[[4-[[2-(6-methyl-2-pyridyl)pyrimidin-4-yl]amino]pyrimidin-2-yl]amino]phenyl]piperazine-2-carboxylate] | 25.1 to 158 |
| 0.0398 to 0.316 | Cc1cccc(-c2nccc(Nc3ccnc(Nc4csc(NC(=O)C5(CO)CNC5)c4)n3)n2)n1 [Compound 206, 3-(hydroxymethyl)-N-[4-[[4-[[2-(6-methyl-2-pyridyl)pyrimidin-4-yl]amino]pyrimidin-2-yl]amino]-2-thienyl]azetidine-3-carboxamide] | 200 to 1260 |
| 0.0398 to 0.316 | Cc1cccc(-c2nccc(Nc3ccnc(Nc4cc(C(=O)OC5CNC5)cs4)n3)n2)n1 [Compound 207, azetidin-3-yl 5-[[4-[[2-(6-methyl-2-pyridyl)pyrimidin-4-yl]amino]pyrimidin-2-yl]amino]thiophene-3-carboxylate] | 25.1 to 158 |
| 0.0398 to 0.316 | Cc1cccc(-c2nccc(Nc3ccnc(Nc4ccc(CN5CCC[C@H](C(=O)O[C@H]6CCN(C)C6)C5)cc4)n3)n2)n1 [Compound 210, [(3S)-1-methylpyrrolidin-3-yl] (3S)-1-[[4-[[4-[[2-(6-methyl-2-pyridyl)pyrimidin-4-yl]amino]pyrimidin-2-yl]amino]phenyl]methyl] piperidine-3-carboxylate] | ≤ 20 |
| 0.0398 to 0.316 | Cc1cccc(-c2nccc(Nc3ccnc(Nc4csc(NC(=O)C5CNC5)c4)n3)n2)n1 [Compound 211, N-[4-[[4-[[2-(6-methyl-2-pyridyl)pyrimidin-4-yl]amino]pyrimidin-2-yl]amino]-2-thienyl]azetidine-3-carboxamide] | 25.1 to 158 |
| 0.0398 to 0.316 | Cc1cccc(-c2nccc(Nc3ccnc(Nc4csc(C(=O)O[C@H]5CCN(C)C5)c4)n3)n2)n1 [Compound 217, [(3S)-1-methylpyrrolidin-3-yl] 4-[[4-[[2-(6-methyl-2-pyridyl)pyrimidin-4-yl]amino]pyrimidin-2-yl]amino]thiophene-2-carboxylate] | 25.1 to 158 |
